Assays:
[1] = test system: Tregs, CD8+ and FoxP3NEG CD4 T cells; experiment: T cell populations in tumors and spleens of TC-1 mice; type: in vivo, mouse
From the text: FIG. 19A is a bar graph representing the number of CD8^+ cells per 10^6 live cells in tumors from untreated and mJJ64A treated mice. FIG. 19B is a bar graph representing the number of CD4^+ cells per 10^6 live cells in tumors from untreated and mJJ64A treated mice. FIG. 19C is a bar graph representing the number of FoxP3^+ cells per 10^6 CD4^+ cells in tumors from untreated and mJJ64A treated mice. FIG. 19D is a bar graph representing the number of CD8^+, FoxP3^NEG CD4^+, and Treg cells per 10^6 live cells in the spleen of untreated or mJJ64A treated tumor-bearing mice. FIG. 19E is a bar graph representing the number of CD8^+, FoxP3^NEG CD4^+, and Treg cells per 10^6 live cells in the spleen of untreated or mJJ64A treated tumor-free mice.

TC-1 tumor = TC-1 tumor growth under mJJ64A; type: in vivo, mouse; settings: compared to untreated controls
From the text: FIG. 18A is an illustration showing the experimental method and treatment schematic for TC-1 tumor experiments. FIG. 18B is a line graph showing tumor volume (cm^3) over time (days) for untreated (▴) and mJJ64A treated (♦) TC1 tumor bearing mice.

experimental colitis = experiment: Experimental colitis model; type: in vivo, mouse; settings: Rag-/- colitis mice
From the text: FIG. 20A is a schematic illustration of the experimental design of a colitis model. FIG. 20B is a line graph representing weight (g) over time (days post-injection) for control (●), iTreg (▪), mJJ64A+iTreg (▴), and mJJ64A (∘) treated colitis mice. FIG. 20C is a line graph representing normalized weight over time (days post-injection) for control (●), iTreg (▪), mJJ64A+iTreg (▴), and mJJ64A (∘) treated colitis mice. FIG. 20D is a line graph showing percent survival of untreated (●), iTreg (blue circle), mJJ64A+iTreg (▾), and mJJ64A (red circle) treated colitis mice. The X-axis represents time (days) and the Y-axis represents percent survival. FIG. 20E-20I are representative photos of untreated (FIG. 20E), iTreg treated (FIG. 20F), JJa treated iTreg (FIG. 20G), untreated (FIG. 20H), and mJJ64A treated (FIG. 20I) colitis mice. […] FIG. 21A is a photo showing representative colons from untreated (UT), iTreg, mJJ64A treated iTreg, mJJ64A, and wild-type (WT) mice. FIG. 21B is a bar graph representing length and weight of colons from normal, untreated (UT), iTreg, mJJ64A, and mJJ64A+iTreg mice. The X-axis represents the treatment group and the Y-axis represents colon weight/length (mg/mm). […]

iTregs = experiment: Proliferation of activated iTregs; type: cell-based; settings: TGF-β induced
From the text: FIGS. 13A-13H show histograms representing proliferation of activated iTregs induced with TGF-β and treated with various concentrations of mJJ64A. FIG. 13I is a bar graph showing percent proliferation of iTregs treated with various concentrations of mJJ64A. The X-axis represents concentration of mJJ64A. The Y-axis represents percent proliferation. FIG. 13J is a bar graph showing the percent of live cells in iTregs treated with various concentrations of mJJ64A. The X axis represents treatment and the Y axis represents percentage of live cells.

mouse nTregs cells = experiment: Suppressive function of mouse nTregs in vitro; type: cell-based; settings: nTreg to Tconv ratios 0:1 to 3:1
From the text: FIGS. 16A-16L is a set of histograms showing the suppressive function of untreated and mJJ64A treated nTregs. The ratio of nTreg to Tconv cells is 0:1, 0.5:1, 1:1, 2:1, and 3:1.

IL-10 = IL-10 production by nTregs; type: cell-based; settings: percent IL-10+ FoxP3+ cells
From the text: FIG. 17 is a bar graph representing the percent of IL-10^+ FoxP3^+ cells in nTregs treated with various concentrations of mJJ64A.

## N#Cc1ccc2nccc(Nc3ccc(C(=O)Nc4ccc(Nc5ccncc5)cc4)cc3)c2c1 [Compound 2]
[1]; compared to untreated controls
  number of Tregs in the tumors and spleens: increased
[1]; mouse, in vivo
  tumor-infiltration of CD8+ and FoxP3NEG CD4 T cells: not affected
TC-1 tumor
  TC-1 tumor growth: significantly increased
Experimental colitis
  protection against experimental colitis: protected
iTregs
  proliferation of iTregs: increased
Mouse nTregs cells
  suppressive function of mouse nTregs cells in vitro: increased
IL-10
  IL-10 production by nTregs: increased

Reference: US11291719B2, “Methods and compositions for modulating Akt3” (Augusta University Research Institute, Inc., priority 2016, dated 2022)
